{"source": "ChEMBL document CHEMBL1148602", "about": "“Synthesis and biological evaluation of new pentaphyrin macrocycles for photodynamic therapy” (J Med Chem, 2006)", "assay_type_in_all_cases": "functional, cell-based", "key": {"[1]": {"system": "IMR-90", "assay": "Cytotoxicity against human transformed fibroblast IMR90 E1A cell line irradiated with white light at the fluence of 15 J/cm2", "settings": "IMR-90, light or radiation study"}, "[2]": {"system": "PANC-1", "assay": "Cytotoxicity against human pancreatic adenocarcinomas Panc1 cell line irradiated with white light at the fluence of 15 J/cm2", "settings": "PANC-1, light or radiation study"}, "[3]": {"system": "IMR-90", "assay": "Effect on apoptotic fragmentation in IMR90 E1A cells at 3 ug/ml and irradiation at 8 mW/cm2 for 60 min", "settings": "Homo sapiens"}, "[4]": {"system": "K562", "assay": "Cytotoxicity against human chronic myelogenous leukemia K562 cell line without light irradiation by MTT assay at 3-12 ug/ml"}, "[5]": {"system": "HeLa", "assay": "Cytotoxicity against human cervix adenocarcinomas HeLa cell line irradiated with white light at the fluence of 15 J/cm2", "settings": "light or radiation study"}, "[6]": {"system": "IMR90 EIA", "assay": "Activation of Caspase 3 and 7 in IMR90 EIA cells at 3 ug/ml and irradiation of 15 J/cm2 for 8 hrs", "settings": "Homo sapiens"}, "[7]": {"system": "K562", "assay": "Activation of Caspase 3 and 7 in K562 cells at 3 ug/ml and irradiation of 15 J/cm2 for 8 hrs", "settings": "Homo sapiens"}, "[8]": {"system": "IMR-90", "assay": "Cytotoxicity against human transformed fibroblast IMR90 E1A cell line without light irradiation by MTT assay at 3-12 ug/ml"}, "[9]": {"system": "HeLa", "assay": "Cytotoxicity against human cervix adenocarcinomas HeLa cell line irradiated with white light at the fluence of 30 J/cm2", "settings": "light or radiation study"}, "[10]": {"system": "K562", "assay": "Cytotoxicity against human chronic myelogenous leukemia K562 cell line irradiated with white light at the fluence of 30 J/cm2", "settings": "K562, light or radiation study"}, "[11]": {"system": "K562", "assay": "Cytotoxicity against human chronic myelogenous leukemia K562 cell line irradiated with white light at the fluence of 15 J/cm2", "settings": "K562, light or radiation study"}, "[12]": {"system": "K562", "assay": "Effect on apoptotic fragmentation in K562 cells at 3 ug/ml and irradiation at 8 mW/cm2 for 60 min", "settings": "Homo sapiens"}, "[13]": {"system": "IMR-90", "assay": "Cytotoxicity against human transformed fibroblast IMR90 E1A cell line irradiated with white light at the fluence of 30 J/cm2", "settings": "IMR-90, light or radiation study"}, "[14]": {"system": "PANC-1", "assay": "Cytotoxicity against human pancreatic adenocarcinomas Panc1 cell line irradiated with white light at the fluence of 30 J/cm2", "settings": "PANC-1, light or radiation study"}, "[15]": {"system": "HeLa", "assay": "Internalization in cytoplasm in HeLa cells at 3 ug/ml for 24 hr by confocal microscopy after propidium iodide staining", "settings": "Homo sapiens"}}, "note": "Calls of active or inactive are those of the source. The calls are words filed in the database; no cut-off is given here."}
{"smiles": "CCC1=C(C)C2=NC/1=C\\c1[nH]c(c(CC)c1CC)/C=c1\\[nH]/c(c(C)c1CC)=C\\c1ccc([nH]1)/C(c1ccccc1)=c1/cc/c([nH]1)=C/2", "values": [{"measurement": "IC50", "setting": "[1]", "result": 4.2, "unit": "µg/mL"}, {"measurement": "IC50", "setting": "[2]", "result": 9.8, "unit": "µg/mL"}, {"measurement": "Activity", "setting": "[3]", "result": "Active"}, {"measurement": "Activity", "setting": "[4]", "result": "Toxic"}, {"measurement": "IC50", "setting": "[5]", "result": 5.8, "unit": "µg/mL"}, {"measurement": "Activity", "setting": "[6]", "result": "Active"}, {"measurement": "Activity", "setting": "[7]", "result": "Active"}, {"measurement": "Activity", "setting": "[8]", "result": "Toxic"}, {"measurement": "IC50", "setting": "[9]", "result": 3.8, "unit": "µg/mL"}, {"measurement": "IC50", "setting": "[10]", "result": 2.9, "unit": "µg/mL"}, {"measurement": "IC50", "setting": "[11]", "result": 3.6, "unit": "µg/mL"}, {"measurement": "Activity", "setting": "[12]", "result": "Active"}, {"measurement": "IC50", "setting": "[13]", "result": 3.2, "unit": "µg/mL"}, {"measurement": "IC50", "setting": "[14]", "result": 4.6, "unit": "µg/mL"}, {"measurement": "Activity", "setting": "[15]", "result": "Active"}]}
{"smiles": "CCC1=C(C)C2=NC/1=C\\c1[nH]c(c(CC)c1CC)/C=c1\\[nH]/c(c(C)c1CC)=C\\C1=NC(C=C1)/C(c1ccccc1)=c1/cc/c([nH]1)=C/2", "note": "(stereo not given)", "values": [{"measurement": "IC50", "setting": "[1]", "result": 4, "unit": "µg/mL"}, {"measurement": "IC50", "setting": "[2]", "result": 9.7, "unit": "µg/mL"}, {"measurement": "Activity", "setting": "[3]", "result": "Active"}, {"measurement": "Activity", "setting": "[4]", "result": "Toxic"}, {"measurement": "IC50", "setting": "[5]", "result": 4.8, "unit": "µg/mL"}, {"measurement": "Activity", "setting": "[6]", "result": "Active"}, {"measurement": "Activity", "setting": "[7]", "result": "Active"}, {"measurement": "Activity", "setting": "[8]", "result": "Toxic"}, {"measurement": "IC50", "setting": "[9]", "result": 2.6, "unit": "µg/mL"}, {"measurement": "IC50", "setting": "[10]", "result": 1.5, "unit": "µg/mL"}, {"measurement": "IC50", "setting": "[11]", "result": 2, "unit": "µg/mL"}, {"measurement": "Activity", "setting": "[12]", "result": "Active"}, {"measurement": "IC50", "setting": "[13]", "result": 2.3, "unit": "µg/mL"}, {"measurement": "IC50", "setting": "[14]", "result": 3.9, "unit": "µg/mL"}, {"measurement": "Activity", "setting": "[15]", "result": "Active"}]}
